Laboratory results from paper PMC10272112 (Nature Communications, 2023).
Values joined by “and” are separate entries in the source; they are usually repeats but may differ in a detail not shown here. Identical values can stand only once. Each block holds one molecule with its values, some of them ahead of it.

Target: T1, HDAC6 (Homo sapiens, UniProt Q9UBN7)
T1 sequence (Q9UBN7 1-1215): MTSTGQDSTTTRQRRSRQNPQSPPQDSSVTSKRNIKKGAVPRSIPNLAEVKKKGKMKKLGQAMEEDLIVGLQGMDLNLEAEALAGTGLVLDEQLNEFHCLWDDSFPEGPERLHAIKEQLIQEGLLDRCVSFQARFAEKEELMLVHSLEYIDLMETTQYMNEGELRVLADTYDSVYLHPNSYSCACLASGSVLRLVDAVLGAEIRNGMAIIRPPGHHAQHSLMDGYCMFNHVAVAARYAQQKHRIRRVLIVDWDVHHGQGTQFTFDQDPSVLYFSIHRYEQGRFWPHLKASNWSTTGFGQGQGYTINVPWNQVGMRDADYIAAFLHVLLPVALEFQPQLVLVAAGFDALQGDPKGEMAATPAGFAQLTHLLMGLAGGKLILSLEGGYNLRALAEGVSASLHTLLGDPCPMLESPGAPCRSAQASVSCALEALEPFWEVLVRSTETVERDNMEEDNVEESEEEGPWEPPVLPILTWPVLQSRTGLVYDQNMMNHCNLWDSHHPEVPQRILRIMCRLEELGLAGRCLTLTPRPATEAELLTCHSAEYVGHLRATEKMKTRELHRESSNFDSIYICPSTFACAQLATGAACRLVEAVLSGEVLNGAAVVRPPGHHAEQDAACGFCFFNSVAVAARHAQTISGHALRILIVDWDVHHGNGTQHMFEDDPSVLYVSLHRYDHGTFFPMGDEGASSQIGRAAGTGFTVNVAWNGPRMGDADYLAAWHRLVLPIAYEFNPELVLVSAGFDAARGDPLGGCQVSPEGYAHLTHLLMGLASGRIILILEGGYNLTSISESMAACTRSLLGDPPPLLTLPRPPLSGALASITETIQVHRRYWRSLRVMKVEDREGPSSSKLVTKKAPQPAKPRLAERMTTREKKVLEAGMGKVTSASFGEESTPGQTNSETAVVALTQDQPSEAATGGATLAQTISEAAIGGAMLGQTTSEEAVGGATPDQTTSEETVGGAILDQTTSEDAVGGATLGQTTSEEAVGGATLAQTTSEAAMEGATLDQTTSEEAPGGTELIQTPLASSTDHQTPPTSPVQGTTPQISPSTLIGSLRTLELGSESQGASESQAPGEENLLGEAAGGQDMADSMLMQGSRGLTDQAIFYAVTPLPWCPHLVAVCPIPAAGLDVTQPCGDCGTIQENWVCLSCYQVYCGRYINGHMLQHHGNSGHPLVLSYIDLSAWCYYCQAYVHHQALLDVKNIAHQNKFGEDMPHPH
Assay: HDAC-Glo assay
Format: biochemical
Design: purchased BPS Bioscience 50006
Conditions: for EC50: read-out: log EC50 from dose-dependent HDAC inhibition curves (converted)
Description: To validate the inhibition of HDACs by LA and LM and elaborate on the structure-activity relationship (SAR) of enantiomers as well as oxidized versus reduced forms of the molecules, we performed enzyme activity assays for recombinant HDAC1,2,3,6,8 as well as FRET-based binding assay for recombinant HDAC10.
The experiments were performed according to ref. [48]. […] Drug dosing was performed with a D300e Digital Dispenser (Tecan). HDACs (7 ng/mL for HDAC1, 25 ng/mL for HDAC2, 200 ng/mL for HDAC3/Ncor2 complex, 100 ng/mL for HDAC6, 200 ng/mL for HDAC8) and inhibitors were incubated together at room temperature (RT) for 30 min. After the addition of the HDAC-Glo™ I/II reagent, plates were shaken (800 rpm orbital shaker, 30 s), centrifuged (300 g, 1 min), and incubated at RT for 30 min. Luminescence was detected with a CLARIOstar (BMG Labtech) plate reader.

SMILES: O=C(O)CCCCC1CCSS1 (racemic) [(R/S)-LA, (R/S)-lipoic acid]
- HDAC enzymatic activity (normalized luminescence) (0.5 M TCEP, log10 M -3.30103, 3 technical replicates): 1.458 and 1.424 and 1.356
- HDAC enzymatic activity (normalized luminescence) (0.5 M TCEP, log10 M -3.82945, 3 technical replicates): 2.832 and 2.728 and 2.83
- HDAC enzymatic activity (normalized luminescence) (0.5 M TCEP, log10 M -4.35788, 3 technical replicates): 6.139 and 5.789 and 5.799
- HDAC enzymatic activity (normalized luminescence) (0.5 M TCEP, log10 M -4.88629, 3 technical replicates): 13.455 and 13.5196 and 13.8559
- HDAC enzymatic activity (normalized luminescence) (0.5 M TCEP, log10 M -5.41477, 3 technical replicates): 31.3499 and 32.1006 and 33.4073
- HDAC enzymatic activity (normalized luminescence) (0.5 M TCEP, log10 M -5.94309, 3 technical replicates): 55.9078 and 57.6015 and 56.5157
- HDAC enzymatic activity (normalized luminescence) (0.5 M TCEP, log10 M -6.47756, 3 technical replicates): 76.0987 and 79.5289 and 82.7102
- HDAC enzymatic activity (normalized luminescence) (0.5 M TCEP, log10 M -6.87615, 3 technical replicates): 85.7363 and 87.7513 and 88.064
- HDAC enzymatic activity (normalized luminescence) (no TCEP, log10 M -3.30103, 3 technical replicates): 23.0918 and 22.3431 and 22.7816
- HDAC enzymatic activity (normalized luminescence) (no TCEP, log10 M -3.82945, 3 technical replicates): 56.1761 and 58.3464 and 57.3647
- HDAC enzymatic activity (normalized luminescence) (no TCEP, log10 M -4.35788, 3 technical replicates): 82.4637 and 85.6042 and 82.8934
- HDAC enzymatic activity (normalized luminescence) (no TCEP, log10 M -4.88629, 3 technical replicates): 93.4335 and 99.2455 and 95.9681
- HDAC enzymatic activity (normalized luminescence) (no TCEP, log10 M -5.41477, 3 technical replicates): 97.1057 and 101.846 and 99.5994
- HDAC enzymatic activity (normalized luminescence) (no TCEP, log10 M -5.94309, 3 technical replicates): 97.3023 and 99.1974 and 100.246
- HDAC enzymatic activity (normalized luminescence) (no TCEP, log10 M -6.47756, 3 technical replicates): 99.4261 and 102.712 and 105.54
- HDAC enzymatic activity (normalized luminescence) (no TCEP, log10 M -6.87615, 3 technical replicates): 96.4036 and 90.044 and 88.9734
- EC50: 1.73 µM
- HDAC6 relative activity (sheet S2b, log conc -3.30103): 1.144 and 1.081 and 1.088
- HDAC6 relative activity (sheet S2b, log conc -3.82945): 2.37 and 2.452 and 2.46
- HDAC6 relative activity (sheet S2b, log conc -4.35788): 4.674 and 4.632 and 4.542
- HDAC6 relative activity (sheet S2b, log conc -4.88629): 10.1866 and 10.4131 and 10.6467
- HDAC6 relative activity (sheet S2b, log conc -5.41477): 23.025 and 23.2631 and 23.7333
- HDAC6 relative activity (sheet S2b, log conc -5.94309): 48.9979 and 48.9603 and 49.8705
- HDAC6 relative activity (sheet S2b, log conc -6.47756): 72.291 and 73.4771 and 73.4953
- HDAC6 relative activity (sheet S2b, log conc -6.87615): 86.8078 and 88.7475 and 90.3905
- HDAC6 relative activity (sheet S2d, log conc -3.30103): 1.458 and 1.424 and 1.356
- HDAC6 relative activity (sheet S2d, log conc -3.82945): 2.832 and 2.728 and 2.83
- HDAC6 relative activity (sheet S2d, log conc -4.35788): 6.139 and 5.789 and 5.799
- HDAC6 relative activity (sheet S2d, log conc -4.88629): 13.455 and 13.5196 and 13.8559
- HDAC6 relative activity (sheet S2d, log conc -5.41477): 31.3499 and 32.1006 and 33.4073
- HDAC6 relative activity (sheet S2d, log conc -5.94309): 55.9078 and 57.6015 and 56.5157
- HDAC6 relative activity (sheet S2d, log conc -6.47756): 76.0987 and 79.5289 and 82.7102
- HDAC6 relative activity (sheet S2d, log conc -6.87615): 85.7363 and 87.7513 and 88.064

- EC50: 0.931 µM
- HDAC6 relative activity (sheet S2b, log conc -3.30103): 75.3248 and 75.1005 and 70.3242
- HDAC6 relative activity (sheet S2b, log conc -3.82945): 95.4583 and 94.7241 and 92.4168
- HDAC6 relative activity (sheet S2b, log conc -4.35788): 101.41 and 101.875 and 100.004
- HDAC6 relative activity (sheet S2b, log conc -4.88629): 103.293 and 100.632 and 100.653
- HDAC6 relative activity (sheet S2b, log conc -5.41477): 102.294 and 103.492 and 99.8033
- HDAC6 relative activity (sheet S2b, log conc -5.94309): 101.321 and 102.657 and 100.612
- HDAC6 relative activity (sheet S2b, log conc -6.47756): 107.714 and 104.061 and 103.825
- HDAC6 relative activity (sheet S2b, log conc -6.87615): 97.9564 and 94.6265 and 91.4846
SMILES: NC(=O)CCCCC1CCSS1 (racemic) [(R/S)-LM, (R/S)-lipoamide]
